Assay results published in publication PMC6106931 (Alzheimer's Research & Therapy, 2018).

Assay: Clinical safety, Study ALZ1005
Type: in vivo, human
[1] = MCI due to AD, JNJ-54861911 total, N=20
[2] = both atabecestat groups, 3 of 31 patients
[3] = preclinical AD, JNJ-54861911 total, N=11

Experimental: Safety and tolerability were assessed during the study by recording adverse events (AEs), clinically significant abnormalities, clinical laboratory tests, ECG, and vital signs and by performing physical, neurological, and MRI examinations. All enrolled participants were included in the safety analysis population.

C[C@@]1(c2cc(NC(=O)c3ccc(C#N)cn3)ccc2F)C=CSC(N)=N1 [atabecestat]
TEAE: Psoriasis [1]: ^0 n (%) | TEAE: Psychiatric disorders [1]: ^2 (10.0) n (%) | TEAE: Renal and urinary disorders [1]: ^1 (5.0) n (%) | TEAE: Renal colic [1]: ^1 (5.0) n (%) | TEAE: Reproductive system and breast disorders [1]: ^1 (5.0) n (%) | TEAE: Skin and subcutaneous tissue disorders [1]: ^2 (10.0) n (%) | TEAE: Somnolence [1]: ^0 n (%) | TEAE: Syncope [1]: ^0 n (%) | TEAE: Urticaria [1]: ^0 n (%) | TEAE: Vascular disorders [1]: ^0 n (%) | TEAE: Vulvovaginal candidiasis [1]: ^1 (5.0) n (%) | TEAE: Vulvovaginal pruritus [1]: ^1 (5.0) n (%) | TEAE accidental overdose (both atabecestat groups, 2 patients): 6.5% | TEAE psychiatric disorders [2]: 9.7% | TEAE skin and subcutaneous tissue disorders [2]: 9.7% | TEAE post-lumbar puncture syndrome (both atabecestat groups, 4 patients): 12.9% | TEAE SOC injury, poisoning, and procedural complications (both atabecestat groups, 5 of 31 patients): 16.1% | changes from baseline in clinical laboratory analytes, liver function tests, vital signs, neurologic and physical examinations (both studies): no clinically significant trends | deaths or TEAEs leading to discontinuation (both studies): no deaths or TEAEs leading to discontinuation | ECG parameters, mean and median changes over time from predose (early AD population): no treatment- or dose-related changes | Subjects with any TEAE (preclinical AD, 10 mg, N=5): ^1 (20.0%) n (%) | TEAE: Accidental overdose (preclinical AD, 10 mg, N=5): ^0 n (%) | TEAE: Anxiety (preclinical AD, 10 mg, N=5): ^0 n (%) | TEAE: Bladder cancer (preclinical AD, 10 mg, N=5): ^0 n (%) | TEAE: Conjunctivitis (preclinical AD, 10 mg, N=5): ^0 n (%) | TEAE: Dementia Alzheimer’s type (preclinical AD, 10 mg, N=5): ^0 n (%) | TEAE: Depressed mood (preclinical AD, 10 mg, N=5): ^0 n (%) | TEAE: Dermatitis allergic (preclinical AD, 10 mg, N=5): ^0 n (%) | TEAE: Dizziness (preclinical AD, 10 mg, N=5): ^0 n (%) | TEAE: Eczema vesicular (preclinical AD, 10 mg, N=5): ^0 n (%) | TEAE: Fatigue (preclinical AD, 10 mg, N=5): ^0 n (%) | TEAE: Gastrointestinal disorders (preclinical AD, 10 mg, N=5): ^0 n (%) | TEAE: General disorders and administration site conditions (preclinical AD, 10 mg, N=5): ^0 n (%) | TEAE: Headache (preclinical AD, 10 mg, N=5): ^0 n (%) | TEAE: Hypertension (preclinical AD, 10 mg, N=5): ^1 (20.^0) n (%) | TEAE: Infections and infestations (preclinical AD, 10 mg, N=5): ^0 n (%) | TEAE: Injury, poisoning and procedural complications (preclinical AD, 10 mg, N=5): ^0 n (%) | TEAE: Insomnia (preclinical AD, 10 mg, N=5): ^0 n (%) | TEAE: Irritability (preclinical AD, 10 mg, N=5): ^0 n (%) | TEAE: Musculoskeletal and connective tissue disorders (preclinical AD, 10 mg, N=5): ^0 n (%) | TEAE: Nasopharyngitis (preclinical AD, 10 mg, N=5): ^0 n (%) | TEAE: Nausea (preclinical AD, 10 mg, N=5): ^0 n (%) | TEAE: Neck pain (preclinical AD, 10 mg, N=5): ^0 n (%) | TEAE: Neoplasms benign, malignant and unspecified (preclinical AD, 10 mg, N=5): ^0 n (%) | TEAE: Nervous system disorders (preclinical AD, 10 mg, N=5): ^0 n (%) | TEAE: Post lumbar puncture syndrome (preclinical AD, 10 mg, N=5): ^0 n (%) | TEAE: Psoriasis (preclinical AD, 10 mg, N=5): ^0 n (%) | TEAE: Psychiatric disorders (preclinical AD, 10 mg, N=5): ^0 n (%) | TEAE: Renal and urinary disorders (preclinical AD, 10 mg, N=5): ^0 n (%) | TEAE: Renal colic (preclinical AD, 10 mg, N=5): ^0 n (%) | TEAE: Reproductive system and breast disorders (preclinical AD, 10 mg, N=5): ^0 n (%) | TEAE: Skin and subcutaneous tissue disorders (preclinical AD, 10 mg, N=5): ^0 n (%) | TEAE: Somnolence (preclinical AD, 10 mg, N=5): ^0 n (%) | TEAE: Syncope (preclinical AD, 10 mg, N=5): ^0 n (%) | TEAE: Urticaria (preclinical AD, 10 mg, N=5): ^0 n (%) | TEAE: Vascular disorders (preclinical AD, 10 mg, N=5): ^1 (20.0) n (%) | TEAE: Vulvovaginal candidiasis (preclinical AD, 10 mg, N=5): ^0 n (%) | TEAE: Vulvovaginal pruritus (preclinical AD, 10 mg, N=5): ^0 n (%) | Subjects with any TEAE (preclinical AD, 50 mg, N=6): ^2 (33.3) n (%) | TEAE: Accidental overdose (preclinical AD, 50 mg, N=6): ^0 n (%) | TEAE: Anxiety (preclinical AD, 50 mg, N=6): ^0 n (%) | TEAE: Bladder cancer (preclinical AD, 50 mg, N=6): ^0 n (%) | TEAE: Conjunctivitis (preclinical AD, 50 mg, N=6): ^0 n (%) | TEAE: Dementia Alzheimer’s type (preclinical AD, 50 mg, N=6): ^0 n (%) | TEAE: Depressed mood (preclinical AD, 50 mg, N=6): ^0 n (%) | TEAE: Dermatitis allergic (preclinical AD, 50 mg, N=6): ^0 n (%) | TEAE: Dizziness (preclinical AD, 50 mg, N=6): ^0 n (%) | TEAE: Eczema vesicular (preclinical AD, 50 mg, N=6): ^0 n (%) | TEAE: Fatigue (preclinical AD, 50 mg, N=6): ^1 (16.7^) n (%) | TEAE: Gastrointestinal disorders (preclinical AD, 50 mg, N=6): ^0 n (%) | TEAE: General disorders and administration site conditions (preclinical AD, 50 mg, N=6): ^1 (16.7) n (%) | TEAE: Headache (preclinical AD, 50 mg, N=6): ^0 n (%) | TEAE: Hypertension (preclinical AD, 50 mg, N=6): ^0 n (%) | TEAE: Infections and infestations (preclinical AD, 50 mg, N=6): ^0 n (%) | TEAE: Injury, poisoning and procedural complications (preclinical AD, 50 mg, N=6): ^1 (16.7) n (%) | TEAE: Insomnia (preclinical AD, 50 mg, N=6): ^1 (16.^7) n (%) | TEAE: Irritability (preclinical AD, 50 mg, N=6): ^0 n (%) | TEAE: Musculoskeletal and connective tissue disorders (preclinical AD, 50 mg, N=6): ^0 n (%) | TEAE: Nasopharyngitis (preclinical AD, 50 mg, N=6): ^0 n (%) | TEAE: Nausea (preclinical AD, 50 mg, N=6): ^0 n (%) | TEAE: Neck pain (preclinical AD, 50 mg, N=6): ^0 n (%) | TEAE: Neoplasms benign, malignant and unspecified (preclinical AD, 50 mg, N=6): ^0 n (%) | TEAE: Nervous system disorders (preclinical AD, 50 mg, N=6): ^0 n (%) | TEAE: Post lumbar puncture syndrome (preclinical AD, 50 mg, N=6): ^1 (16.7^) n (%) | TEAE: Psoriasis (preclinical AD, 50 mg, N=6): ^1 (16.^7) n (%) | TEAE: Psychiatric disorders (preclinical AD, 50 mg, N=6): ^1 (16.^7) n (%) | TEAE: Renal and urinary disorders (preclinical AD, 50 mg, N=6): ^0 n (%) | TEAE: Renal colic (preclinical AD, 50 mg, N=6): ^0 n (%) | TEAE: Reproductive system and breast disorders (preclinical AD, 50 mg, N=6): ^0 n (%) | TEAE: Skin and subcutaneous tissue disorders (preclinical AD, 50 mg, N=6): ^1 (16.^7) n (%) | TEAE: Somnolence (preclinical AD, 50 mg, N=6): ^0 n (%) | TEAE: Syncope (preclinical AD, 50 mg, N=6): ^0 n (%) | TEAE: Urticaria (preclinical AD, 50 mg, N=6): ^1 (16.^7) n (%) | TEAE: Vascular disorders (preclinical AD, 50 mg, N=6): ^0 n (%) | TEAE: Vulvovaginal candidiasis (preclinical AD, 50 mg, N=6): ^0 n (%) | TEAE: Vulvovaginal pruritus (preclinical AD, 50 mg, N=6): ^0 n (%) | Subjects with any TEAE [3]: ^3 (27.3) n (%) | TEAE: Fatigue [3]: ^1 (9.1) n (%) | TEAE: General disorders and administration site conditions [3]: ^1 (9.1) n (%) | TEAE: Hypertension [3]: ^1 (9.1) n (%) | TEAE: Injury, poisoning and procedural complications [3]: ^1 (9.1) n (%) | TEAE: Insomnia [3]: ^1 (9.1) n (%) | TEAE: Nervous system disorders [3]: ^0 n (%) | TEAE: Post lumbar puncture syndrome [3]: ^1 (9.1) n (%) | TEAE: Psoriasis [3]: ^1 (9.1) n (%) | TEAE: Psychiatric disorders [3]: ^1 (9.1) n (%) | TEAE: Skin and subcutaneous tissue disorders [3]: ^1 (9.1) n (%) | TEAE: Somnolence [3]: ^0 n (%) | TEAE: Urticaria [3]: ^1 (9.1) n (%) | TEAE: Vascular disorders [3]: ^1 (9.1) n (%)
